From US5981517A, “Androstene derivatives” (priority 1997, dated 1999)

Key:
[1] = test system: forearm of a human volunteer; experiment: Further human vasoconstriction testing, Method 2; type: in vivo; set-up: key: +: "positive" (pallor could be observed); -: "negative" (pallor could not be detected)
Description: The mixtures, in 20 μL amounts, were applied to circular patches (1/4 inch diameter). The patches were applied to the forearm of a human volunteer, and covered with a water impervious film for 3 hr. Vasoconstriction activity was judged by the appearance of pallor at various time points after the patches were removed. Tests were performed on the same person and the results were obtained from 2-4 observations.
In TABLE XIV above, "-" means a negative result was obtained. In other tables herein, "-" means not tested.
In TABLE XIV above, the results of a simpler method of judging vasoconstriction activity was used in which only "positive" (pallor could be observed) or "negative" (pallor could not be detected) results were recorded.

[2] = Stability in human plasma; type: in vitro ADME; conditions: human, plasma
Description: (§1) A Waters NOVA-PAK phenyl column was connected to a Spectra-Physics component system consisting of a SP 8810 precision isocratic pump, a Rheodyne 7125 injector (injection volume 20 μL), an SP 8450 UV/VIS variable wavelength detector (operated at 254 nm) and a SP 4270 integrator. […]. The retention times of compound of the invention J and its metabolities L and M were 8.64, 2.70 and 2.45 minutes, respectively. The retention times of compound of the invention I and its metabolites N and 0 were 5.84, 2.70 and 1.81 minutes, respectively. The retention time of cortienic acid was 1.00 minute.
(§2) Freshly collected human or rat plasma was used. An aliquot of 10 mM test compound in ethanol solution was added to prewarmed (37° C.) plasma to yield a final concentration of 100 μM. At appropriate time intervals, samples (0.1 mL) were removed and mixed with 0.2 mL of 5% dimethylsulfoxide/acetonitrile solution. Mixtures were centrifuged and supernatants were analyzed by HPLC. The pseudo-first order rate constant of the disappearance of compound in the biological media was determined by linear regression analysis from the plot of log peak area and peak height versus time.
(§3) Stability was evaluated by the pseudo first-order rate constant (k, hr^-1) and half-life (t1/2, hr) of the disappearance of the test compound in the media.

Stability in rat plasma = type: in vitro ADME; conditions: rat, plasma
Description: as §1, §2, §3

Structure (SMILES): CCOC(=O)[C@@]1(OC(=O)C(Cl)Cl)[C@H](C)C[C@H]2[C@@H]3CCC4=CC(=O)C=C[C@]4(C)[C@@]3(F)[C@@H](O)C[C@@]21C [J, ethyl 17α-dichloroacetoxy-9α-fluoro-11β-hydroxy-16α-methylandrosta-1,4-dien-3-one-17β-carboxylate]
- Vasoconstriction activity ([1]; 4 Hours, 0.01 mM): -
- Vasoconstriction activity ([1]; 4 Hours, 0.05 mM): -
- Vasoconstriction activity ([1]; 4 Hours, 0.1 mM): -
- Vasoconstriction activity ([1]; 4 Hours, 0.5 mM): -
- Vasoconstriction activity ([1]; 4 Hours, 1 mM): +
- Vasoconstriction activity ([1]; 4 Hours, 5 mM): +
- Vasoconstriction activity ([1]; 8 Hours, 0.01 mM): -
- Vasoconstriction activity ([1]; 8 Hours, 0.05 mM): -
- Vasoconstriction activity ([1]; 8 Hours, 0.1 mM): -
- Vasoconstriction activity ([1]; 8 Hours, 0.5 mM): +
- Vasoconstriction activity ([1]; 8 Hours, 1 mM): +
- Vasoconstriction activity ([1]; 8 Hours, 5 mM): +
- Vasoconstriction activity ([1]; 10-22 hours, 0.01 mM): -
- Vasoconstriction activity ([1]; 10-22 hours, 0.05 mM): -
- Vasoconstriction activity ([1]; 10-22 hours, 0.1 mM): -
- Vasoconstriction activity ([1]; 10-22 hours, 0.5 mM): +
- Vasoconstriction activity ([1]; 10-22 hours, 1 mM): +
- Vasoconstriction activity ([1]; 10-22 hours, 5 mM): +
- Vasoconstriction activity ([1]; 24 Hours, 0.01 mM): -
- Vasoconstriction activity ([1]; 24 Hours, 0.05 mM): -
- Vasoconstriction activity ([1]; 24 Hours, 0.1 mM): -
- Vasoconstriction activity ([1]; 24 Hours, 0.5 mM): +
- Vasoconstriction activity ([1]; 24 Hours, 1 mM): +
- Vasoconstriction activity ([1]; 24 Hours, 5 mM): +
- half-life at 100 µM [2]: 40.1 h
- half-life at 100 µM (Stability in rat plasma): 40.7 h
